# In patent US20260224520A1, “ABC TRANSPORTER EXPRESSION PROMOTING AGENT, CHOLESTEROL EXCRETION PROMOTING AGENT, INFLAMMATORY CYTOKINE PRODUCTION INHIBITING AGENT, ANTI-INFLAMMATORY AGENT, AND ARTERIOSCLEROSIS PREVENTING AGENT” (MEIJI CO., LTD., priority 2022, published 2026):
# Entries after “also recorded” stand apart in the source; their conditions may differ.
# Key:
# [1] = tested on: Human macrophage-like THP-1 cells; assay: Cholesterol excretion promoting activity of fatty acids, fluorometry, 24 h pre-culture with the substance; assay type: cell-based; conditions: for cholesterol excretion promoting activity (in words): conclusion from Tables 5A and 8
# Experimental: Human macrophage-like THP-1 cells were seeded in a 96-well plate so as to be 2.0×10^5 cells/well, and allowed to differentiate for 72 hours. The medium was then replaced with RPMI 1640 medium containing 0.02% by mass of bovine serum albumin (BSA), 10 to 40 μg/mL (final concentration in the well) of 10-hydroxypalmitic acid (Angene) was added, and the cells were cultured for 24 hours. The medium was then replaced with Dulbecco's Modified Eagle Medium (DMEM) containing 0.02% by mass of BSA and 6 mM of sodium taurocholate, and the medium was recovered after 4 hours. The level of cholesterol excreted from the cells (the cholesterol level in the recovered medium) was measured in the same manner as in Example 1 to evaluate the cholesterol excretion promoting activity of 10-hydroxypalmitic acid (n=3).
# In the same manner as in Example 5A, the cholesterol excretion promoting activities of 10-hydroxypalmitic acid and other hydroxypalmitic acids (2-hydroxypalmitic acid (Tokyo Chemical Industry Co., Ltd.), 3-hydroxypalmitic acid (Sigma-Aldrich), 16-hydroxypalmitic acid (Tokyo Chemical Industry Co., Ltd.), and 10-hydroxypalmitic acid), which may be contained in Camembert cheese, as well as palmitic acid to which no hydroxyl group was added (Sigma) were evaluated (n=6 to 11).
# ABCA1 [2] = assay: ABCA1 mRNA expression level by real-time PCR in THP-1 cells; assay type: cell-based, Human; conditions: 20 μg/ml, 24 h; corrected with 18S ribosomal RNA; EtOH = 1; n=3
# Experimental: (§1) Since the cholesterol excretion promoting activity of 10-hydroxypalmitic acid was confirmed, the effect of 10-hydroxypalmitic acid on ABC transporters was evaluated. Specifically, human macrophage-like THP-1 cells were seeded in a 24-well plate so as to be 1.0×10^6 cells/well, and allowed to differentiate for 72 hours. The medium was then replaced with RPMI 1640 medium containing 0.02% by mass of bovine serum albumin (BSA), 20 μg/mL (final concentration in the well) of 10-hydroxypalmitic acid was added, the cells were cultured for 24 hours, then mRNA was extracted using RNeasy Minikit (Qiagen), reverse transcription was carried out using ReverTra Ace (Registered trademark) qPCR RT Master Mix with gDNA Remover (Toyobo), and the ABCA1 and ABCG1 mRNA expression levels were measured by real-time PCR using Thermal Cycler Dice TP800 (Takara). 18S ribosomal RNA was used as a control gene. The ABCA1 and ABCG1 mRNA expression levels were each corrected with the mRNA expression level of the control gene, and the ABC transporter expression promoting activity of 10-hydroxypalmitic acid was evaluated (n=3).
# [3] = tested on: Human macrophage-like THP-1 cells; assay: Cholesterol excretion promoting activity in an inflammation-induced state, fluorometry (Amplex Red); assay type: cell-based; conditions: for Cholesterol excretion level (Average # standard deviation): DMSO-control = 1, n=4
# Experimental: Human macrophage-like THP-1 cells were seeded in a 24-well plate so as to be 1.0×10^6 cells/well, and allowed to differentiate for 72 hours. The medium was then replaced with RPMI 1640 medium containing: 0.02% by mass of bovine serum albumin (BSA); either dimethyl sulfoxide (DMSO) or 20 μg/mL of 10-hydroxypalmitic acid; and either 50 μg/mL of oxidized LDL (oxLDL) (Invitrogen), 50 μg/mL of acetylated LDL (acLDL) (Invitrogen), 5 μM of T0901317+5 μM of 9-cis-retinoic acid (T0+RA), or 1 μg/mL of LPS (Sigma), or replaced with RPMI 1640 medium (control) containing: 0.02% by mass of BSA; and either DMSO or 20 μg/mL 10-hydroxypalmitic acid, but not containing any of oxLDL, acLDL, T0+RA, and LPS, and the macrophage-like cells were cultured for 24 hours to induce inflammation. The medium was then replaced with Dulbecco's Modified Eagle Medium (DMEM) containing 0.02% by mass of BSA and 6 mM of sodium taurocholate, and the cells were cultured for 4 hours. The medium was then recovered, and the level of cholesterol excreted from the cells (the cholesterol level in the recovered medium) was measured by fluorometry using Amplex Red to evaluate the cholesterol excretion promoting activity of 10-hydroxypalmitic acid in an inflammation-induced state (n=4).
# IL-1 = IL-1 mRNA expression level by real-time PCR in THP-1 cells with or without inflammation induction; assay type: cell-based, Human; conditions: 24 h, DMSO-control = 1
# Experimental: (§2) Human macrophage-like THP-1 cells were seeded in a 24-well plate so as to be 1.0×10^6 cells/well, and allowed to differentiate for 72 hours. The medium was then replaced with RPMI 1640 medium containing: 0.02% by mass of bovine serum albumin (BSA); either dimethyl sulfoxide (DMSO) or 20 μg/mL of 10-hydroxypalmitic acid; and either 50 μg/mL of oxidized LDL (oxLDL) (Invitrogen), 50 μg/mL of acetylated LDL (acLDL) (Invitrogen), 5 μM of T0901317+5 μM of 9-cis-retinoic acid (T0+RA), or 1 μg/mL of lipopolysaccharide (LPS) (Sigma), or replaced with RPMI 1640 medium (control) containing: 0.02% by mass of bovine serum albumin (BSA); and either DMSO or 20 μg/mL 10-hydroxypalmitic acid, but not containing any of oxLDL, acLDL, T0+RA, and LPS, and the macrophage-like cells were cultured for 24 hours to induce inflammation. The medium was then replaced with Dulbecco's Modified Eagle Medium (DMEM) containing 0.02% by mass of BSA and 6 mM of sodium taurocholate, and the cells were cultured for 4 hours. The cells were then recovered, and the mRNA expression levels of IL-1 and IL-6, which are inflammatory markers (inflammatory cytokines), were measured by real-time PCR in the same manner as in Example 6 (n=4 to 6).
# [4] = tested on: Human macrophage-like THP-1 cells; assay: Cholesterol excretion promoting activity of 10-hydroxypalmitic acid by colorimetry; assay type: cell-based
# Experimental: The cholesterol excretion promoting activity of 10-hydroxypalmitic acid was also examined by colorimetry. Specifically, human macrophage-like THP-1 cells were seeded in a 6-well plate so as to be 4.0×10^6 cells/well, and allowed to differentiate for 72 hours. The medium was then replaced with RPMI 1640 medium containing 0.02% by mass of bovine serum albumin (BSA), 20 μg/mL (final concentration in the well) of 10-hydroxypalmitic acid (Angene) was added, and the cells were cultured for 24 hours and then recovered. Lipids were then extracted using methanol and chloroform, and the level of cholesterol excreted from the cells (the cholesterol level in the recovered medium) was measured using a free cholesterol assay kit (Fujifilm Wako Pure Chemical Corporation) to evaluate the cholesterol excretion promoting activity of 10-hydroxypalmitic acid (n =3).
# IL-6 = IL-6 mRNA expression level by real-time PCR in THP-1 cells with or without inflammation induction; assay type: cell-based, Human; conditions: 24 h, DMSO-control = 1
# Experimental: as §2
# ABCA1 [5] = assay: ABCA1 protein expression level by Western blotting in THP-1 cells; assay type: cell-based, Human; conditions: 20 μg/mL, 24 h; corrected with actin; DMSO = 1; n=3
# Experimental: (§3) The ABCA1 and ABCG1 protein expression levels were evaluated. Specifically, cells cultured in the same manner as in Example 6 were recovered, SDS-PAGE and blotting were carried out using the 10% minigel shown in Table 7A and, after blocking, the protein expression levels were measured by Western blotting using a primary antibody (anti-mouse monoclonal ABCA1 (KM3110) or anti-rabbit polyclonal ABCG1 (H65) (Novus)) and anti-actin (Sigma) as a loading control (n=3). The protein expression levels were quantified with CS Analyzer 4 […]. The ABCA1 and ABCG1 protein expression levels were each corrected with the actin protein expression level.
# ABCG1 [6] = assay: ABCG1 mRNA expression level by real-time PCR in THP-1 cells; assay type: cell-based, Human; conditions: 20 μg/mL, 24 h; corrected with 18S ribosomal RNA; EtOH = 1; n=3
# Experimental: as §1
# ABCG1 [7] = assay: ABCG1 protein expression level by Western blotting in THP-1 cells; assay type: cell-based, Human; conditions: 20 μg/mL, 24 h; corrected with actin; DMSO = 1; n=3
# Experimental: as §3
# [8] = same manner as Example 5A, concentration not given, EtOH = 1, n=6 to 11
# [9] = 20 μg/mL with T0 + RA (5 μM each)
# [10] = 20 μg/mL, Control (no inducer), n=4 to 6
smiles,measurement,setting,value
"CCCCCCCCCCCCCCCC(=O)O [Palmitic acid, palmitic acid, reference compound]",Cholesterol excretion level (Average ± standard deviation),[1]; [8],0.823 ± 0.268 relative value
CCCCCCC(O)CCCCCCCCC(=O)O (stereo not drawn) [10-hydroxypalmitic acid],ABCA1 mRNA expression level (Average ± standard deviation),ABCA1 [2],2.870 ± 0.267 relative value
same,Cholesterol excretion level (Average # standard deviation),[3]; 20 μg/mL with 1 μg/mL LPS,9.320 ± 3.477 relative value
same,Cholesterol excretion level (Average # standard deviation),[3]; 20 μg/mL with 50 μg/mL acLDL,1.821 ± 0.426 relative value
same,Cholesterol excretion level (Average # standard deviation),[3]; 20 μg/mL with 50 μg/mL oxLDL,2.389 ± 0.628 relative value
same,Cholesterol excretion level (Average # standard deviation),[3]; [9],33.159 ± 10.920 relative value
same,Cholesterol excretion level (Average # standard deviation),"[3]; 20 μg/mL, Control (no inducer)",3.588 ± 1.302 relative value
same,cholesterol excretion promoting activity (in words),"[3]; inflammation-induced state or ABC transporters induced by T0+RA, conclusion from Table 10",had a cholesterol excretion promoting activity
same,IL-1 mRNA expression level (Average ± standard deviation),IL-1; 20 μg/mL with 1 μg/mL LPS,0.450 ± 0.390 relative value
same,IL-1 mRNA expression level (Average ± standard deviation),IL-1; 20 μg/mL with 50 μg/mL acLDL,0.389 ± 0.067 relative value
same,IL-1 mRNA expression level (Average ± standard deviation),IL-1; 20 μg/mL with 50 μg/mL oxLDL,0.419 ± 0.184 relative value
same,IL-1 mRNA expression level (Average ± standard deviation),IL-1; [9],0.185 ± 0.059 relative value
same,IL-1 mRNA expression level (Average ± standard deviation),IL-1; [10],0.200 ± 0.046 relative value
same,Cholesterol excretion level (Average ± standard deviation),"[4]; 20 μg/mL, 24 h, DMSO = 1, n=3",1.569 ± 0.317 relative value
same,cholesterol excretion promoting activity (in words),[4]; conclusion from Table 5B,confirmed
same,IL-6 mRNA expression level (Average ± standard deviation),IL-6; 20 μg/mL with 1 μg/mL LPS,0.530 ± 0.107 relative value
same,IL-6 mRNA expression level (Average ± standard deviation),IL-6; 20 μg/mL with 50 μg/mL acLDL,0.363 ± 0.149 relative value
same,IL-6 mRNA expression level (Average ± standard deviation),IL-6; 20 μg/mL with 50 μg/mL oxLDL,0.167 ± 0.029 relative value
same,IL-6 mRNA expression level (Average ± standard deviation),IL-6; [9],0.095 ± 0.050 relative value
same,IL-6 mRNA expression level (Average ± standard deviation),IL-6; [10],0.104 ± 0.032 relative value
same,ABCA1 protein expression level (Average ± standard deviation),ABCA1 [5],2.607 ± 0.559 relative value
same,Cholesterol excretion level (Average ± standard deviation),"[1]; 10 μg/mL, 24 h, DMSO = 1, n=3",1.553 ± 0.102 relative value
same,Cholesterol excretion level (Average ± standard deviation),"[1]; 20 μg/mL, 24 h, DMSO = 1, n=3",1.685 ± 0.138 relative value
same,Cholesterol excretion level (Average ± standard deviation),"[1]; 30 μg/mL, 24 h, DMSO = 1, n=3",2.313 ± 0.479 relative value
same,Cholesterol excretion level (Average ± standard deviation),"[1]; 40 μg/mL, 24 h, DMSO = 1, n=3",1.872 ± 0.374 relative value
same,cholesterol excretion promoting activity (in words),[1],concentration-dependent cholesterol excretion promoting activity; also recorded: had a cholesterol excretion promoting activity
same,Cholesterol excretion level (Average ± standard deviation),[1]; [8],1.331 ± 0.500 relative value
same,ABCG1 mRNA expression level (Average ± standard deviation),ABCG1 [6],2.953 ± 0.195 relative value
same,ABCG1 protein expression level (Average ± standard deviation),ABCG1 [7],2.541 ± 0.815 relative value
"CCCCCCCCCCCCCCC(O)C(=O)O (stereo not drawn) [2-Hydroxypalmitic acid, 2-hydroxypalmitic acid, reference compound]",Cholesterol excretion level (Average ± standard deviation),[1]; [8],0.970 ± 0.175 relative value
"CCCCCCCCCCCCCC(O)CC(=O)O (stereo not drawn) [3-Hydroxypalmitic acid, 3-hydroxypalmitic acid, reference compound]",Cholesterol excretion level (Average ± standard deviation),[1]; [8],1.094 ± 0.271 relative value
O=C(O)CCCCCCCCCCCCCCCO [16-hydroxypalmitic acid],cholesterol excretion promoting activity (in words),[1],had a cholesterol excretion promoting activity
same,Cholesterol excretion level (Average ± standard deviation),[1]; [8],1.406 ± 0.982 relative value
